Each structure is given as a SMILES string. Values joined by “and” are separate entries in the source; they are usually repeats but may differ in a detail not shown here. Equal entries are not always repeated. Marks after values point to notes of the source that are not given here.

Series [1] deals with newborn cells in the subgranular zone. Put plainly: BrdU+ newborn cells, rats sacrificed 28 days after BrdU. The series is classed as in vivo, rat. As to conditions: nine-week-old rats (n = 2), i.p. 4.0 mg/kg/day for 28 days, BrdU pulse, Figure 7A. The procedure:
The study employed a rat model, wherein nine-week-old rats were administered intraperitoneally with the compound at a dose of 4.0 mg/kg/day for 28 days and then treated with a pulse of BrdU. Instead of sacrificing the rats 24 h after the BrdU injections, the rats were sacrificed after another 28 days. The brains were then isolated and cryosectioned. Eight randomly selected slices were subjected to immunohistochemical staining. This staining enabled the co-localization of the BrdU-incorporated cells with the NeuN marker, enabling the definition of the compounds that could promote the differentiation of newborn neural progenitor cells into mature functional neurons. The compounds were dissolved in reagent-grade soybean oil containing 10% ethanol to reach a drug concentration of 2.8 mg/mL. The rats in the experimental group received intraperitoneal injections of the compounds at a dose of 4.0 mg/kg/d for 28 consecutive days. As a control, the vehicle group was administered injections of reagent-grade soybean oil containing 10% ethanol. BrdU (Sigma-Aldrich, St. louis, MA, USA) solution, prepared in physiological saline at a concentration of 10 mg/mL, was administered to all rats on day 29. Each rat received two injections of BrdU at a dosage of 50 mg/kg, with a 2 h interval between injections. The rats were euthanized 24 h (or 28 days) after the final BrdU injection. Two or four rats per group were anesthetized using pentobarbital sodium (70 mg/kg) and subsequently perfused with physiological saline. The brain tissue was carefully dissected and fixed in 4% paraformaldehyde at 4 °C for one week. Next, the brain tissue underwent dehydration using a phosphate-buffered saline (PBS) solution containing 20% to 30% sucrose. Finally, the brain tissue was cryosectioned into slices with a thickness of 30 μm, and eight slices were randomly selected for further analysis. The assessment of new cell proliferation was conducted using BrdU staining. To eliminate endogenous peroxides, sections were exposed to 1% H2O2 for 30 min at RT. Cellular denaturation was achieved by treating the sections with 2 M HCl at 37 °C for 1 h, followed by rinsing in 0.1 M borate buffer (pH 8.5). Tissue sections were subjected to blocking in a solution consisting of 5% goat serum and 0.5% Triton X-100 in PBS at RT for 1–2 h. The specimens were then incubated overnight at 4 °C with a mouse primary antibody specific to BrdU (diluted at 1:500; Millipore, Billerica, MA, USA). Subsequently, the DAB kit was employed for 2 h of incubation at RT. The differentiation process of NPCs was visualized through the utilization of the NeuN/BrdU double staining technique. Tissue sections were subjected to an incubation period in a blocking buffer at RT for 1 to 2 h. The specimens were exposed to a rabbit anti-NeuN antibody (diluted at 1:500, Abcam, Cambridge, MA, UK) and a primary antibody, BrdU (diluted at 1:500), overnight at 4 °C. Afterwards, the sections were treated with anti-mouse 488 and anti-rabbit TRITC secondary antibodies for 2 h at RT. The data were presented as mean ± SEM (standard error of the mean) and visualized using GRAPHPAD PRISM 6 (Graphpad Software, La Jolla, CA, USA). Statistical analysis was conducted utilizing one-way analysis of variance (ANOVA) followed by a post hoc test. Subsequent to the statistical treatment, the observed discrepancies were determined to be statistically significant (p < 0.05).

The nature of series [2]: Pharmacokinetic study, plasma. As to conditions: rat blood/plasma, 4 mg/kg i.p. Type of series: in vivo, SD rats. As for the experimental part: (§1) The SD rats (approximately 200 g) were randomly assigned to eight groups, with each group comprising three rats. All experimental procedures were carried out in accordance with the ethical guidelines outlined by the Ethics Committee of the Beijing Institute of Technology. The administration medium consisted of a combination of 5% dimethyl sulfoxide (DMSO) and 95% soybean oil. The drug was administered intraperitoneally at a dose of 4 mg/kg. Prior to the experiment, the experimental animals were subjected to a 12 h fasting period with free access to water. Following drug administration, blood samples were collected from the rat’s orbital vein at predetermined time points. The collected blood was then placed in sodium heparin anticoagulation tubes. The rats were euthanized, and their brain tissues were carefully extracted and loaded into 5 mL EP tubes. The collection time points for plasma and brain tissue samples were as follows: 0 min, 15 min, 30 min, 1 h, 2 h, 4 h, 8 h, and 24 h. Within 2 h after collection, the blood samples were centrifuged at 6000 rpm for 10 min at a temperature of 4 °C. The resulting samples were then stored in a −20 °C refrigerator.
(§2) Tissue samples were first weighed and homogenized to ensure consistent testing conditions. The determination of original compound concentrations in plasma and tissue homogenates was performed using LC-MS/MS. Specifically, 50 μL of plasma or tissue samples were mixed with 50 μL of propranolol and 100 μL of acetonitrile for protein precipitation. The resulting mixture was then centrifuged at 12,000 rpm for 5 min, and the supernatant was diluted and analyzed through LC-MS/MS. The liquid chromatography was conducted on a Thermo Scientific Q Exactive HF-X instrument (Thermo Fisher Scientific, Waltham, MA, USA), employing an ACQUITY UPLC BEH C18 Column with dimensions of 130 Å, 1.7 µm, 2.1 mm × 100 mm. Additionally, a pre-column equipped with an ACQUITY UPLC BEH C18 VanGuard Pre-Column (130 Å, 1.7 µm, 2.1 mm × 5 mm) was utilized. The liquid phase method employed gradient elution with mobile phases consisting of acetonitrile and a 0.1% formic acid aqueous solution. Mass spectrometry was conducted in positive ion mode. The quantification of drug concentration in plasma samples was performed using the internal standard method, and the obtained pharmacokinetic parameters were calculated using Phoenix WinNonlin 7.0 software.

A short description of series [3]: Pharmacokinetic study, brain tissue distribution. The series is classed as in vivo, SD rats. To be noted: 4 mg/kg i.p. As for the experimental part:
as §1
as §2, with “Additionally, a pre-column equipped with an ACQUITY UPLC BEH C18 VanGuard Pre-Column (130 Å, 1.7 µm, 2.1 mm × 5 mm) was utilized. The liquid phase method employed gradient elution with mobile phases consisting of acetonitrile and a 0.1% formic acid aqueous solution. Mass spectrometry was conducted in positive ion mode.” left out

With `CC(C)C(=O)Nc1ccc(/C(C#N)=C/c2ccc3c(c2)OCO3)cc1` [29b, (Z)-N-(4-(2-(benzo[d][1, 3]dioxol-5-yl)-1-cyanovinyl)phenyl)isobutyramide], the “proliferative activity over the longer 28 day period (number of BrdU+ cells)” value in series [1] is “could promote the proliferation of progenitors”.
Consider `CC(C)C(=O)Nc1ccc(/C=C(\C#N)c2ccc3c(c2)OCO3)cc1` [32b, (Z)-N-(4-(2-(benzo[d][1, 3]dioxol-5-yl)-2-cyanovinyl)phenyl)isobutyramide], for which, in series [2], the “AUC0–inf” value was 385 ± 82.3 ng·h/mL, the CL is on record as 10,770 ± 2616 mL/h/kg, the MRT stood at 2.46 ± 0.14 h and the T1/2 is 2.23 h. For the same compound, in series [2], the Tmax turned out to be 1.5 h and the Vz was 32,829 ± 4581 mL/kg. In addition, in series [2] (n = 3), the “AUC0–24h” value was 383 ± 84.4 ng·h/mL and the Cmax amounted to 132 ± 9 ng/mL. Also, in series [3] (rat brain tissue, n = 3), the Cmax is on record as 168 ± 47 ng/g. For the same compound, the “AUC0–24h” value in series [3] (rat brain tissue, n = 3, 4 mg/kg) is 608 ng·h/g and 608 ± 220 ng·h/g. The “Ratio = Cmax of Brain/Cmax of Blood” value in series [3] (rat) is 1.28 ^a.

Broadly, the MRT is the average time that molecules of a dose stay in the body. By Tmax is commonly meant the time from dosing to the highest level. For orientation: Cmax means the highest concentration seen after dosing.

The values above are taken from publication PMC10816640, “Discovery of Novel Diphenyl Acrylonitrile Derivatives That Promote Adult Rats’ Hippocampal Neurogenesis” (International Journal of Molecular Sciences, 2024).
